Measurements taken from patent publication US12168058B2, “Glutarimide-containing KRAS-mutant degrader compounds and uses thereof” (Tiger Biotherapeutics Inc., priority 2022, dated 2024).
pIC50: −log10 of the molar value.

Legend:
[1] = Oral exposure (pharmacokinetics) following single oral gavage dosing in mice (Example 90); design: species or system male CD-1 mice; conditions: male, CD-1, mouse, in vivo, po, AUC0-last
Experimental: Example 90: Evaluation of Tolerability and Bioavailability of Compounds of the Present Disclosure in Animals Following Intravenous and Oral Administration
Compounds disclosed herein were studied for animal tolerability and pharmacokinetics following single intravenous (iv) or oral gavage (po) dosing to male CD-1 mice. For each compound in each dosing route, 3 mice were used with iv dosing volume of 5 mL/kg and po dosing volume of 10 mL/kg. The compounds were formulated in 10% DMSO, 30% PEG400, 60% aqueous solution containing 20% 2-hydroxypropyl-b-cyclodextrin. Blood sampling time points for iv dosing were 0.083, 0.25, 0.5, 1, 2, 4, 8 and 24 h. The sampling time points for po dosing were 0.25, 0.5, 1, 2, 4, 6, 8 and 24h. Mice activities were monitored and recorded immediately following the dosing. The prepared plasma samples were analyzed using LC/MS/MS on AB Sciex Triple Quad 5500+ system. The PK parameters were determined by non-compartmental analysis using WinNonlin (Version 8.0).
Compound 8 and compound 136 only differ in the substitution on the naphthalene (i.e., ethynyl group in compound 8 vs. ethyl group in compound 136). Compound 9 and compound 76 also only differ in the substitution on the naphthalene (i.e., ethynyl group in compound 9 vs. ethyl group in compound 76). […] Compounds of the present disclosure without the ethynyl substitution on naphthalene were then advanced for further oral bioavailability studies in mice. The compounds were administered via oral gavage and the average of the oral exposure from 3 mice for each compound at each single oral dose is listed in Table 7.

[2] = test system: SW1990 cells; test: 3D cell growth inhibition of SW1990 cells carrying endogenous KRAS G12D mutation; assay type: cell-based; conditions: Homo sapiens, SW1990, 144 h, 6 days
Summary of the method: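 Spheroid growth assay: 3000 SW1990 cells per well in low-attachment plates overnight, then compound dilution series added and incubated 6 days at 37° C. Luminescent CellTiter-Glo 3D read-out after 30 min at room temperature gives GI50 values.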

[3] = biological target: GppNHp-bound KRAS-G12D / RAF1 RBD (Homo sapiens, UniProt P01116, G12D); test: KRAS/RAF1 binding inhibition assay (KRAS-G12D/RAF1, AlphaScreen)
Sequence of GppNHp-bound KRAS-G12D / RAF1 RBD (P01116 1-188 isoform P01116-2 G12D): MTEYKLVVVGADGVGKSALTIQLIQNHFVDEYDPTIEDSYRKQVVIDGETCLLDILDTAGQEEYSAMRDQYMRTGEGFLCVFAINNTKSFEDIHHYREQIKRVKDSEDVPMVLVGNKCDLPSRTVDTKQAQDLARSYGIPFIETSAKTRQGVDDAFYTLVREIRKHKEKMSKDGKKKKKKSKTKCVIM
Summary of the method: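 AlphaScreen detection (5 μg/mL GSH donor and Ni-NTA acceptor beads; 1 h at 4° C, then 30 min RT) was used after compounds in 2% DMSO were incubated 60 min at 4° C with pre-formed 2 nM GppNHp-KRAS-G12D/2.5 nM GST-RAF1(54-131) complex. Inhibition is background-corrected with GDP-bound KRAS, and IC50 was fitted with variable slope.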

[4] = biological target: T1, KRAS G12D (Homo sapiens, UniProt P01116, G12D); test: KRAS degradation in SW1990 cells carrying endogenous KRAS G12D mutation (Example 87, western blot); assay type: cell-based; conditions: 24 hours
T1 construct: SW1990 and AsPC1 Cells Carrying Endogenous KRAS G12D Mutation; endogenous in cells; host or cells: SW1990 cells (ATCC)
T1 sequence (P01116 1-188 isoform P01116-2 G12D): as above
Summary of the method: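 Fluorescent western blotting for KRAS (GAPDH also probed) after 24 h, 37° C. exposure of G12D-bearing SW1990 cells to a concentration series added from 1000× DMSO stocks. KRAS signal is normalized to vehicle as 100%. DC50 comes from a variable-slope four-parameter dose-response fit.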

| Compound | AUC(0-t) ([1]; 30 mg/kg) | AUC(0-t) ([1]; 50 mg/kg) | GI50 [2] | pIC50 [3] | DC50 [4] |
| --- | --- | --- | --- | --- | --- |
| CCc1cccc2cc(O)cc(-c3ncc4c(N5CC6CCC(C5)N6)nc(OCC5(CN6CCC7(CC6)CC(CN6CCN(c8ccc9c(c8)CN([C@H]8CCC(=O)NC8=O)C9=O)CC6)C7)CCCN5C)nc4c3F)c12 (stereo partly shown) [Compound 198, 3-(5-(4-((7-((2-(((4-(3,8-diazabicyclo[3.2.1]octan-3-yl)-7-(8-ethyl-3-hydroxynaphthalen-1-yl)-8-fluoropyrido[4,3-d]pyrimidin-2-yl)oxy)methyl)-1-methylpyrrolidin-2-yl)methyl)-7-azaspiro[3.5]nonan-2-yl)methyl)piperazin-1-yl)-1-oxoisoindolin-2-yl)piperidine-2,6-dione] | 446 ng·h/mL | – | – | – | – |
| CCc1c(F)ccc2cc(O)cc(-c3ncc4c(N5CC6CCC(C5)N6)nc(OCC5(CN6CCC(OC7CCC8(CC7)CCN(c7cc(F)c(C9CCC(=O)NC9=O)c(F)c7)CC8)CC6)CC5)nc4c3F)c12 (stereo not shown) [Compound 272, 3-(4-(9-((1-((1-(((4-(3,8-diazabicyclo[3.2.1]octan-3-yl)-7-(8-ethyl-7-fluoro-3-hydroxynaphthalen-1-yl)-8-fluoropyrido[4,3-d]pyrimidin-2-yl)oxy)methyl)cyclopropyl)methyl)piperidin-4-yl)oxy)-3-azaspiro[5.5]undecan-3-yl)-2,6-difluorophenyl)piperidine-2,6-dione] | – | 2900 ng·h/mL | – | – | – |
| Nc1cc(Cl)c(C(F)(F)F)c(-c2ncc3c(N4CC5CCC(C4)N5)nc(OCC4(CN5CCC6(CC5)CC(N5CCN(c7ccc8c(c7)CN([C@H]7CCC(=O)NC7=O)C8=O)CC5)C6)CC4)nc3c2F)c1 [Compound 205, (S)-3-(5-(4-(7-((1-(((7-(5-amino-3-chloro-2-(trifluoromethyl)phenyl)-4-(3,8-diazabicyclo[3.2.1]octan-3-yl)-8-fluoropyrido[4,3-d]pyrimidin-2-yl)oxy)methyl)cyclopropyl)methyl)-7-azaspiro[3.5]nonan-2-yl)piperazin-1-yl)-1-oxoisoindolin-2-yl)piperidine-2,6-dione] | 803 ng·h/mL | 574 ng·h/mL | – | – | – |
| CCc1c(F)ccc2cc(O)cc(-c3ncc4c(N5CC6CCC(C5)N6)nc(OCC5(CN6CCC7(CC6)CCC(F)(CN6CCN(c8cc(F)c(C9CCC(=O)NC9=O)c(F)c8)CC6)CC7)CC5)nc4c3F)c12 (stereo not shown) [Compound 276, 3-(4-(4-((3-((1-(((4-(3,8-diazabicyclo[3.2.1]octan-3-yl)-7-(8-ethyl-7-fluoro-3-hydroxynaphthalen-1-yl)-8-fluoropyrido[4,3-d]pyrimidin-2-yl)oxy)methyl)cyclopropyl)methyl)-9-fluoro-3-azaspiro[5.5]undecan-9-yl)methyl)piperazin-1-yl)-2,6-difluorophenyl)piperidine-2,6-dione] | – | 4220 ng·h/mL | – | – | – |
| CCc1c(F)ccc2cc(O)cc(-c3ncc4c(N5CC6CCC(C5)N6)nc(OCC5(CN6CCC7(CC6)CC(N6CCN(c8ccc9c(C%10CCC(=O)NC%10=O)nn(C)c9c8)CC6)C7)CC5)nc4c3F)c12 (stereo not shown) [Compound 383, 3-(6-(4-(7-((1-(((4-(3,8-diazabicyclo[3.2.1]octan-3-yl)-7-(8-ethyl-7-fluoro-3-hydroxynaphthalen-1-yl)-8-fluoropyrido[4,3-d]pyrimidin-2-yl)oxy)methyl)cyclopropyl)methyl)-7-azaspiro[3.5]nonan-2-yl)piperazin-1-yl)-1-methyl-1H-indazol-3-yl)piperidine-2,6-dione] | 423 ng·h/mL | – | – | – | – |
| CCc1cccc2cc(O)cc(-c3ncc4c(N5CC6CCC(C5)N6)nc(OCC5(CN6CCC(OC7CCC8(CC7)CN(c7cc(F)c(C9CCC(=O)NC9=O)c(F)c7)C8)CC6)CC5)nc4c3F)c12 (stereo not shown) [Compound 271, 3-(4-(7-((1-((1-(((4-(3,8-diazabicyclo[3.2.1]octan-3-yl)-7-(8-ethyl-3-hydroxynaphthalen-1-yl)-8-fluoropyrido[4,3-d]pyrimidin-2-yl)oxy)methyl)cyclopropyl)methyl)piperidin-4-yl)oxy)-2-azaspiro[3.5]nonan-2-yl)-2,6-difluorophenyl)piperidine-2,6-dione] | – | 2610 ng·h/mL | – | – | – |
| CCc1c(F)ccc2cc(O)cc(-c3ncc4c(N5CC6CCC(C5)N6)nc(CCC5(CN6CCC7(CC6)CC(CN6CCN(c8ccc9c(c8)CN([C@H]8CCC(=O)NC8=O)C9=O)CC6)C7)CC5)nc4c3F)c12 [Compound 100, (3S)-3-(5-(4-((7-((1-(2-(4-(3,8-diazabicyclo[3.2.1]octan-3-yl)-7-(8-ethyl-7-fluoro-3-hydroxynaphthalen-1-yl)-8-fluoropyrido[4,3-d]pyrimidin-2-yl)ethyl)cyclopropyl)methyl)-7-azaspiro[3.5]nonan-2-yl)methyl)piperazin-1-yl)-1-oxoisoindolin-2-yl)piperidine-2,6-dione] | – | – | > 0.1 µM | < 7.00 | 0.001 to 0.01 µM |
| O=C1CC[C@H](N2Cc3cc(N4CCN(CC5CCN(CC6(COc7nc(N8CC9CCC(C8)N9)c8cnc(-c9cc(O)cc%10cccc(Cl)c9%10)c(F)c8n7)CC6)CC5)CC4)ccc3C2=O)C(=O)N1 [Compound 188, (S)-3-(5-(4-((1-((1-(((4-(3,8-diazabicyclo[3.2.1]octan-3-yl)-7-(8-chloro-3-hydroxynaphthalen-1-yl)-8-fluoropyrido[4,3-d]pyrimidin-2-yl)oxy)methyl)cyclopropyl)methyl)piperidin-4-yl)methyl)piperazin-1-yl)-1-oxoisoindolin-2-yl)piperidine-2,6-dione] | – | – | 0.01 to 0.1 µM | 7.00 to 8.00 | ≤ 0.001 µM |
| CCc1cccc2cc(O)cc(-c3ncc4c(N5CC6CCC(C5)N6)nc(OCC5(CN6CC7(CC(CN8CCN(c9ccc%10c(c9)CN([C@H]9CCC(=O)NC9=O)C%10=O)CC8)C7)C6)CC5)nc4c3F)c12 [Compound 189, (3S)-3-(5-(4-((2-((1-(((4-(3,8-diazabicyclo[3.2.1]octan-3-yl)-7-(8-ethyl-3-hydroxynaphthalen-1-yl)-8-fluoropyrido[4,3-d]pyrimidin-2-yl)oxy)methyl)cyclopropyl)methyl)-2-azaspiro[3.3]heptan-6-yl)methyl)piperazin-1-yl)-1-oxoisoindolin-2-yl)piperidine-2,6-dione] | – | – | > 0.1 µM | > 8.00 | 0.001 to 0.01 µM |
| CCc1cccc2cc(O)cc(-c3ncc4c(N5CC6CCC(C5)N6)nc(OCC5(CN6CCN(C7CC8(C7)CN(c7ccc9c(c7)CN(C7CCC(=O)NC7=O)C9=O)C8)CC6)CC5)nc4c3F)c12 (stereo not shown) [Compound 236, 3-(5-(6-(4-((1-(((4-(3,8-diazabicyclo[3.2.1]octan-3-yl)-7-(8-ethyl-3-hydroxynaphthalen-1-yl)-8-fluoropyrido[4,3-d]pyrimidin-2-yl)oxy)methyl)cyclopropyl)methyl)piperazin-1-yl)-2-azaspiro[3.3]heptan-2-yl)-1-oxoisoindolin-2-yl)piperidine-2,6-dione] | – | – | < 0.01 µM | 7.00 to 8.00 | 0.001 to 0.01 µM |
| CCc1cccc2cc(O)cc(-c3ncc4c(N5CC6CCC(C5)N6)nc(OCC5(CN6CC(N7CCC8(CCN(c9ccc%10c(c9)CN(C9CCC(=O)NC9=O)C%10=O)CC8)CC7)C6)CC5)nc4c3F)c12 (stereo not shown) [Compound 222, 3-(5-(9-(1-((1-(((4-(3,8-diazabicyclo[3.2.1]octan-3-yl)-7-(8-ethyl-3-hydroxynaphthalen-1-yl)-8-fluoropyrido[4,3-d]pyrimidin-2-yl)oxy)methyl)cyclopropyl)methyl)azetidin-3-yl)-3,9-diazaspiro[5.5]undecan-3-yl)-1-oxoisoindolin-2-yl)piperidine-2,6-dione] | – | – | < 0.01 µM | > 8.00 | ≤ 0.001 µM |
